What was measured:
Type in all cases: in vivo
[1] = test system: Setaria viridis (SETVI); test: Herbicidal pre-emergence action, test C (Table C4); conditions: visual scoring after about 3 weeks, 100% = plants have died, 0% = like control plants
Method in brief: (§1)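 Pre-emergence soil-surface spray, 1280 or 320 g/ha, WP/EC in water with 0.5% additive, 600 L/ha. Sandy loam pots, doubly sown. Greenhouse ~3 weeks; visual % effect vs untreated (0% = like control, 100% = dead).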

[2] = test system: Lolium rigidum (LOLRI); test: Herbicidal pre-emergence action, test C (Table C2); conditions: dosage 1280 g/ha; visual scoring after about 3 weeks; 100% = plants have died, 0% = like control plants
Method in brief: as §1

[3] = test system: Poa annua (POAAN); test: Herbicidal post-emergence action (Table B3); conditions: rated visually after about 3 weeks, 100% = plants have died, 0% = like control plants
Method in brief: (§2)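 Weeds grown from seed in sandy loam in the greenhouse were sprayed at the one-leaf stage, 2 to 3 weeks after sowing, with WP or EC formulations in water plus 0.5% additive at 600 L/ha. Rates corresponded to 1280 or 320 g/ha; damage was rated visually versus untreated controls after about 3 weeks.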

[4] = test system: harmful plants ABUTH, AMARE, ECHCG, LOLRI, MATIN, POAAN, SETVI, STEME, ALOMY, DIGSA, KCHSC and VERPE; test: Herbicidal post-emergence action, summary of Tables B1-B12; conditions: application rate of 1280 or 320 g of active ingredient per hectare; summary in words
Method in brief: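 Greenhouse weeds in sandy loam treated post-emergence at the one-leaf stage, 2–3 weeks after sowing, with WP or EC formulations sprayed with 0.5% additive at 600 L/ha water, 1280 or 320 g/ha. Damage rated visually after about 3 weeks versus untreated controls (0% = like control, 100% = dead).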

[5] = test system: Abutilon theophrasti (ABUTH); test: Herbicidal post-emergence action (Table B5); conditions: rated visually after about 3 weeks, 100% = plants have died, 0% = like control plants
Method in brief: as §2

[6] = test system: Amaranthus retroflexus (AMARE); test: Herbicidal pre-emergence action, test C (Table C6); conditions: visual scoring after about 3 weeks, 100% = plants have died, 0% = like control plants
Method in brief: as §1

[7] = test system: Poa annua (POAAN); test: Herbicidal pre-emergence action, test C (Table C3); conditions: visual scoring after about 3 weeks, 100% = plants have died, 0% = like control plants
Method in brief: as §1

[8] = test system: Stellaria media (STEME); test: Herbicidal pre-emergence action, test C (Table C8); conditions: visual scoring after about 3 weeks, 100% = plants have died, 0% = like control plants
Method in brief: as §1

[9] = test system: Amaranthus retroflexus (AMARE); test: Herbicidal post-emergence action (Table B6); conditions: visual rating about 3 weeks after treatment, 100% = plants have died, 0% = like control plants
Method in brief: as §2

[10] = test system: Echinochloa crus-galli (ECHCG); test: Herbicidal post-emergence action (Table B1); conditions: rated visually after about 3 weeks, 100% = plants have died, 0% = like control plants
Method in brief: as §2

[11] = test system: Echinochloa crus-galli (ECHCG); test: Herbicidal pre-emergence action, test C (Table C1); conditions: visual scoring after about 3 weeks, 100% = plants have died, 0% = like control plants
Method in brief: as §1

[12] = test system: Abutilon theophrasti (ABUTH); test: Herbicidal pre-emergence action, test C (Table C5); conditions: visual scoring after about 3 weeks, 100% = plants have died, 0% = like control plants
Method in brief: as §1

[13] = test system: Stellaria media (STEME); test: Herbicidal post-emergence action (Table B8); conditions: visual rating about 3 weeks after treatment, 100% = plants have died, 0% = like control plants
Method in brief: as §2

[14] = test system: Lolium rigidum (LOLRI); test: Herbicidal post-emergence action (Table B2); conditions: 1280 g/ha; rated visually after about 3 weeks; 100% = plants have died, 0% = like control plants
Protocol: (§3) Seeds of mono- and dicotyledonous weed plants were placed in plastic pots in sandy loam soil (doubly sown with in each case one species of mono- or dicotyledonous weed plants per pot), covered with soil and cultivated in a greenhouse under controlled growth conditions. 2 to 3 weeks after sowing, the test plants were treated at the one-leaf stage. The compounds of the invention, formulated in the form of wettable powders (WP) or as emulsion concentrates (EC), were applied onto the green parts of the plants as aqueous suspension or emulsion with addition of 0.5% additive at a water application rate of 600 liters per hectare (converted). After the test plants had been kept in the greenhouse under optimum growth conditions for about 3 weeks, the activity of the preparations was rated visually in comparison to untreated controls. For example, 100% activity=the plants have died, 0% activity=like control plants. Tables B1 to B12 below show the effects of selected compounds of the general formula (I) according to Table 1 on various harmful plants and an application rate corresponding to 1280 or 320 g/ha, which were obtained by the experimental procedure mentioned above.

[15] = test system: harmful plants ABUTH, AMARE, ECHCG, LOLRI, MATIN, POAAN, SETVI, STEME, ALOMY, DIGSA, KCHSC and VERPE; test: Herbicidal pre-emergence action (test C), summary of Tables C1-C12; conditions: application rate of 1280 or 320 g of active ingredient per hectare; summary in words
Method in brief: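 Pre-emergence pot test in sandy loam: WP or EC formulations were sprayed onto the covering soil with 0.5% additive at 600 L/ha water, at 1280 or 320 g/ha. Plants were kept in the greenhouse, and activity was rated visually about 3 weeks later as % versus untreated controls (100% = dead).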

[16] = test system: Matricaria inodora (MATIN); test: Herbicidal pre-emergence action, test C (Table C7); conditions: visual scoring after about 3 weeks, 100% = plants have died, 0% = like control plants
Method in brief: as §1

[17] = test system: Setaria viridis (SETVI); test: Herbicidal post-emergence action (Table B4); conditions: rated visually after about 3 weeks, 100% = plants have died, 0% = like control plants
Protocol: as §3

SMILES: Fc1cccc(Oc2ccccn2)c1-c1cc(C(F)F)no1 [Example 1-16]
- Pre-emergence action against Setaria viridis (SETVI) ([1]; dosage 320 g/ha): 100%
- Pre-emergence action against Setaria viridis (SETVI) ([1]; dosage 1280 g/ha): 100%
- Pre-emergence action against Lolium rigidum (LOLRI) [2]: 100%
- Post-emergence action against Poa annua (POAAN) ([3]; 320 g/ha): 100%
- Post-emergence action against Poa annua (POAAN) ([3]; 1280 g/ha): 100%
- herbicidal activity against the harmful plants of Tables B1-B12 in post-emergence treatment [4]: very good herbicidal activity
- Post-emergence action against Abutilon theophrasti (ABUTH) ([5]; 320 g/ha): 100%
- Post-emergence action against Abutilon theophrasti (ABUTH) ([5]; 1280 g/ha): 100%
- Pre-emergence action against Amaranthus retroflexus (AMARE) ([6]; dosage 320 g/ha): 100%
- Pre-emergence action against Amaranthus retroflexus (AMARE) ([6]; dosage 1280 g/ha): 100%
- Pre-emergence action against Poa annua (POAAN) ([7]; dosage 320 g/ha): 100%
- Pre-emergence action against Poa annua (POAAN) ([7]; dosage 1280 g/ha): 100%
- Pre-emergence action against Stellaria media (STEME) ([8]; dosage 320 g/ha): 100%
- Pre-emergence action against Stellaria media (STEME) ([8]; dosage 1280 g/ha): 100%
- Post-emergence action against Amaranthus retroflexus (AMARE) ([9]; dosage 320 g/ha): 100%
- Post-emergence action against Amaranthus retroflexus (AMARE) ([9]; dosage 1280 g/ha): 100%
- Post-emergence action against Echinochloa crus-galli (ECHCG) ([10]; 320 g/ha): 90%
- Post-emergence action against Echinochloa crus-galli (ECHCG) ([10]; 1280 g/ha): 100%
- Pre-emergence action against Echinochloa crus-galli (ECHCG) ([11]; dosage 1280 g/ha): 90%
- Pre-emergence action against Abutilon theophrasti (ABUTH) ([12]; dosage 320 g/ha): 100%
- Pre-emergence action against Abutilon theophrasti (ABUTH) ([12]; dosage 1280 g/ha): 100%
- Post-emergence action against Stellaria media (STEME) ([13]; dosage 320 g/ha): 100%
- Post-emergence action against Stellaria media (STEME) ([13]; dosage 1280 g/ha): 100%
- Post-emergence action against Lolium rigidum (LOLRI) [14]: 100%
- herbicidal activity against the harmful plants of Tables C1-C12 in pre-emergence treatment [15]: very good herbicidal activity
- Pre-emergence action against Matricaria inodora (MATIN) ([16]; dosage 320 g/ha): 90%
- Pre-emergence action against Matricaria inodora (MATIN) ([16]; dosage 1280 g/ha): 100%

SMILES: Fc1cccc(Oc2ncc(Cl)cc2Cl)c1-c1cc(C(F)F)no1 [Example 1-21]
- Pre-emergence action against Setaria viridis (SETVI) ([1]; dosage 320 g/ha): 100%
- Pre-emergence action against Setaria viridis (SETVI) ([1]; dosage 1280 g/ha): 100%
- Pre-emergence action against Lolium rigidum (LOLRI) [2]: 100%
- Post-emergence action against Setaria viridis (SETVI) ([17]; 320 g/ha): 90%
- Post-emergence action against Setaria viridis (SETVI) ([17]; 1280 g/ha): 100%
- Post-emergence action against Poa annua (POAAN) ([3]; 320 g/ha): 100%
- Post-emergence action against Poa annua (POAAN) ([3]; 1280 g/ha): 100%
- herbicidal activity against the harmful plants of Tables B1-B12 in post-emergence treatment [4]: very good herbicidal activity
- Post-emergence action against Abutilon theophrasti (ABUTH) ([5]; 320 g/ha): 100%
- Post-emergence action against Abutilon theophrasti (ABUTH) ([5]; 1280 g/ha): 100%
- Pre-emergence action against Amaranthus retroflexus (AMARE) ([6]; dosage 320 g/ha): 100%
- Pre-emergence action against Amaranthus retroflexus (AMARE) ([6]; dosage 1280 g/ha): 100%
- Pre-emergence action against Poa annua (POAAN) ([7]; dosage 320 g/ha): 100%
- Pre-emergence action against Poa annua (POAAN) ([7]; dosage 1280 g/ha): 100%
- Post-emergence action against Amaranthus retroflexus (AMARE) ([9]; dosage 1280 g/ha): 90%
- Post-emergence action against Echinochloa crus-galli (ECHCG) ([10]; 320 g/ha): 100%
- Post-emergence action against Echinochloa crus-galli (ECHCG) ([10]; 1280 g/ha): 100%
- Pre-emergence action against Abutilon theophrasti (ABUTH) ([12]; dosage 320 g/ha): 90%
- Pre-emergence action against Abutilon theophrasti (ABUTH) ([12]; dosage 1280 g/ha): 90%
- Post-emergence action against Stellaria media (STEME) ([13]; dosage 320 g/ha): 100%
- Post-emergence action against Stellaria media (STEME) ([13]; dosage 1280 g/ha): 100%
- Post-emergence action against Lolium rigidum (LOLRI) [14]: 100%
- herbicidal activity against the harmful plants of Tables C1-C12 in pre-emergence treatment [15]: very good herbicidal activity
- Pre-emergence action against Matricaria inodora (MATIN) ([16]; dosage 1280 g/ha): 90%

SMILES: Fc1cccnc1Oc1cccc(F)c1-c1cc(C(F)F)no1 [Example 1-23]
- Pre-emergence action against Setaria viridis (SETVI) ([1]; dosage 320 g/ha): 100%
- Pre-emergence action against Setaria viridis (SETVI) ([1]; dosage 1280 g/ha): 100%
- Pre-emergence action against Lolium rigidum (LOLRI) [2]: 100%
- Post-emergence action against Setaria viridis (SETVI) ([17]; 1280 g/ha): 90%
- Post-emergence action against Poa annua (POAAN) ([3]; 320 g/ha): 100%
- Post-emergence action against Poa annua (POAAN) ([3]; 1280 g/ha): 100%
- herbicidal activity against the harmful plants of Tables B1-B12 in post-emergence treatment [4]: very good herbicidal activity
- Post-emergence action against Abutilon theophrasti (ABUTH) ([5]; 320 g/ha): 100%
- Post-emergence action against Abutilon theophrasti (ABUTH) ([5]; 1280 g/ha): 100%
- Pre-emergence action against Amaranthus retroflexus (AMARE) ([6]; dosage 1280 g/ha): 100%
- Pre-emergence action against Poa annua (POAAN) ([7]; dosage 320 g/ha): 90%
- Pre-emergence action against Poa annua (POAAN) ([7]; dosage 1280 g/ha): 100%
- Pre-emergence action against Stellaria media (STEME) ([8]; dosage 320 g/ha): 100%
- Pre-emergence action against Stellaria media (STEME) ([8]; dosage 1280 g/ha): 100%
- Post-emergence action against Amaranthus retroflexus (AMARE) ([9]; dosage 320 g/ha): 100%
- Post-emergence action against Amaranthus retroflexus (AMARE) ([9]; dosage 1280 g/ha): 100%
- Post-emergence action against Echinochloa crus-galli (ECHCG) ([10]; 320 g/ha): 100%
- Post-emergence action against Echinochloa crus-galli (ECHCG) ([10]; 1280 g/ha): 100%
- Pre-emergence action against Echinochloa crus-galli (ECHCG) ([11]; dosage 320 g/ha): 100%
- Pre-emergence action against Echinochloa crus-galli (ECHCG) ([11]; dosage 1280 g/ha): 100%
- Pre-emergence action against Abutilon theophrasti (ABUTH) ([12]; dosage 320 g/ha): 100%
- Pre-emergence action against Abutilon theophrasti (ABUTH) ([12]; dosage 1280 g/ha): 100%
- Post-emergence action against Stellaria media (STEME) ([13]; dosage 320 g/ha): 100%
- Post-emergence action against Stellaria media (STEME) ([13]; dosage 1280 g/ha): 100%
- Post-emergence action against Lolium rigidum (LOLRI) [14]: 100%
- herbicidal activity against the harmful plants of Tables C1-C12 in pre-emergence treatment [15]: very good herbicidal activity
- Pre-emergence action against Matricaria inodora (MATIN) ([16]; dosage 320 g/ha): 90%
- Pre-emergence action against Matricaria inodora (MATIN) ([16]; dosage 1280 g/ha): 100%
